Measurements from US8680150B2, “Small molecule hematopoietic growth factor mimetic compounds that activate hematopoietic growth factor receptors” (Ligand Pharmaceuticals, Inc., priority 2009, dated 2014).

System: UT7/EPO Cell line
Experiment: Cell proliferation assay in UT7/EPO cell line (ViaLight Plus)
Assay type: cell-based, human
Conditions: compound at 10 uM, efficacy relative to EPO (100%), UT7/EPO cells expressing endogenous EPO receptor, starved of EPO overnight, 72 hours at 37° C.
Experimental: The primary testing for the exemplified compounds was performed in UT7/EPO Cell line. UT7/EPO is human leukemia cell line, obtained from Dr. Norio Komatsu (Blood, Vol 82 (2), pp 456-464, 1993). These cells express endogenous EPO receptor and are dependant upon EPO for growth and proliferation. Briefly, the cells were starved of EPO overnight and plated in 96 or 384 well plates. The compounds were added to the cells at 10 uM concentration. The plates were then incubated at 37° C. for 72 hours. The proliferative effect of the compounds was measured by a commercially available kit from Lonza (ViaLight Plus).

For `CC1=NN(c2ccc3ccccc3n2)C(=O)/C1=N\Nc1ccc(O)cc1` [Compound 108, 4-(4-Hydroxyphenyl)hydrazono-1-(2-quinolino)-3-methyl-5-pyrazolone], the “Activity (%)” value was 2.4%.

`COc1ccc2c(c1)cc(C(=O)N/N=C/c1ccc(O)cc1)n2C` [Compound 121, (1-Methyl-5-methoxyindole-2-)carboxyl(4-hydroxybenzylidene)hydrazide] was tested, and the “Activity (%)” value was 12%.

For `O=C(N/N=C/c1ccccc1O)c1ccc(N2CCCC2=O)cc1` [Compound 123, 4-(2-Oxopyrrolidino-1-)benz(2-hydroxybenzylidene)hydrazide], the “Activity (%)” value was 5.1%.

With `Cc1cccc(C(=O)N/N=C/c2ccccc2O)c1` [Compound 124, 3-Methylbenz(2-hydroxybenzylidene)hydrazide] the “Activity (%)” value was 3.4%.

For `O=C(N/N=C/c1ccc2ccccc2c1)c1ccc(-c2ccccc2)cc1` [Compound 125, 4-Phenylbenz(2-naphthylidene)hydrazide], the “Activity (%)” value was 15%.

With `O=C(N/N=C/c1ccc2ccccc2c1)c1ccc(O)cc1` [Compound 126, 4-Hydroxybenz(2-naphthylidene)hydrazide] the “Activity (%)” value was 3.4%.

With `CN(C)c1ccc(/C=N/NC(=O)c2ccc(N3CCCC3=O)cc2)cc1` [Compound 127, 4-(2-Oxopyrrolidino-1-)benz(4-dimethylaminobenzylidene)hydrazide] the “Activity (%)” value was 6.8%.

With `COc1ccc(C(=O)N/N=C/c2cccc(OC)c2)cc1` [Compound 128, 4-Methoxybenz(3-methoxybenzylidene)hydrazide] the “Activity (%)” value was 5.6%.

`COc1ccc(O)c(/C=N/NC(=O)c2ccc(N3CCCC3=O)cc2)c1` [Compound 129, 4-(2-Oxopyrrolidino-1-)benz(2-hydroxy-5-methoxybenzylidene)hydrazide] was tested, and the “Activity (%)” value was 23%.

`COc1cc(/C=N/NC(=O)c2ccc(N3CCCC3=O)cc2)ccc1O` [Compound 130, 4-(2-Oxopyrrolidino-1-)benz(4-hydroxy-3-methoxybenzylidene)hydrazide] was tested, and the “Activity (%)” value was 20%.

In the case of `COc1ccc(/C=N/NC(=O)c2ccc(N3CCCC3=O)cc2)cc1` [Compound 131, 4-(2-Oxopyrrolidino-1-)benz(4-methoxybenzylidene)hydrazide], the “Activity (%)” value is reported as 15%.

`COc1ccc(/C=N/NC(=O)c2ccc(N3CCCC3=O)cc2)cc1OC` [Compound 132, 4-(2-Oxopyrrolidino-1-)benz(3,4-dimethoxybenzylidene)hydrazide] was tested, and the “Activity (%)” value was 8.7%.

In the case of `COc1cccc(/C=N/NC(=O)c2ccc(OCc3ccc(Cl)cc3)cc2)c1` [Compound 133, 4-(4-Chlorobenzyloxy)benz(3-methoxybenzylidene)hydrazide], the “Activity (%)” value is reported as 14%.

`COc1cccc(/C=N/NC(=O)c2ccc(OCc3ccc(C)cc3)cc2)c1` [Compound 134, 4-(4-Methylbenzyloxy)benz(3-methoxybenzylidene)hydrazide] was tested, and the “Activity (%)” value was 14%.

For `COc1cccc(/C=N/NC(=O)c2ccc(-n3cccc3)cc2)c1` [Compound 135, 4-(1-Pyrrolyl)benz(3-methoxybenzylidene)hydrazide], the “Activity (%)” value was 12%.

For `COc1cc(/C=N/NC(=O)c2ccc(OCc3ccc(C)cc3)cc2)cc(OC)c1OC` [Compound 136, 4-(4-Methylbenzyloxy)benz(3,4,5-trimethoxybenzylidene)hydrazide], the “Activity (%)” value was 4.8%.

With `COc1ccc(/C=N/NC(=O)c2ccc(OCc3ccc(Cl)cc3)cc2)cc1OC` [Compound 137, 4-(4-Chlorobenzyloxy)benz(3,4-dimethoxybenzylidene)hydrazide] the “Activity (%)” value was 12%.

In the case of `COc1ccc(/C=N/NC(=O)c2ccc(OCc3ccc(C)cc3)cc2)cc1OC` [Compound 138, 4-(4-Methylbenzyloxy)benz(3,4-dimethoxybenzylidene)hydrazide], the “Activity (%)” value is reported as 18%.

With `COc1cccc(/C=N/NC(=O)c2ccc(N(C)C)cc2)c1` [Compound 139, 4-Dimethylaminobenz(3-methoxybenzylidene)hydrazide] the “Activity (%)” value (10 µM) was 7.8%.

`COc1cccc(/C=N/NC(=O)c2ccc(-c3ccccc3)cc2)c1` [Compound 140, 4-Phenylbenz(3-methoxybenzylidene)hydrazide] was tested, and the “Activity (%)” value was 14%.

For `COc1cc(/C=N/NC(=O)c2ccc(OCc3ccc(Cl)cc3)cc2)ccc1O` [Compound 141, 4-(4-Chlorobenzyloxy)benz(4-hydroxy-3-methoxybenzylidene)hydrazide], the “Activity (%)” value was 17%.

In the case of `COc1cccc(/C=N/NC(=O)c2ccc(OCc3ccc(Br)cc3)cc2)c1` [Compound 142, 4-(4-Bromobenzyloxy)benz(3-methoxybenzylidene)hydrazide], the “Activity (%)” value is reported as 6.0%.

`COc1cccc(/C=N/NC(=O)c2ccc(OCc3ccc(F)cc3)cc2)c1` [Compound 143, 4-(4-Fluorobenzyloxy)benz(3-methoxybenzylidene)hydrazide] was tested, and the “Activity (%)” value was 14%.

In the case of `COc1cc(/C=N/NC(=O)c2ccc(-c3ccccc3)cc2)ccc1O` [Compound 144, 4-Phenylbenz(4-hydroxy-3-methoxybenzylidene)hydrazide], the “Activity (%)” value is reported as 15%.

With `CCCCCCCCCCCCCCCCCC(=O)N/N=C/c1cc(OC)ccc1O` [Compound 148, Octadecano(2-hydroxy-5-methoxybenzylidene)hydrazide] the “Activity (%)” value was 7.1%.

For `COc1cccc(/C=N/NC(=O)c2ccc(OCc3ccccc3)cc2)c1` [Compound 149, 4-Benzyloxybenz(3-methoxybenzylidene)hydrazide], the “Activity (%)” value was 9.7%.

In the case of `COc1cccc(/C=N/NC(=O)c2ccc(-c3cnco3)cc2)c1` [Compound 150, 4-(4-Oxazolyl)benz(3-methoxybenzylidene)hydrazide], the “Activity (%)” value is reported as 4.5%.

`COc1ccc(O)c(/C=N/NC(=O)c2ccc(-c3ccccc3)cc2)c1` [Compound 151, 4-Phenylbenz(2-hydroxy-5-methoxybenzylidene)hydrazide] was tested, and the “Activity (%)” value was 6.3%.

`COc1ccc(COc2ccc(C(=O)N/N=C/c3cccc(OC)c3)cc2)cc1` [Compound 152, 4-(4-Methoxybenzyloxy)benz(3-methoxybenzylidene)hydrazide] was tested, and the “Activity (%)” value was 6.9%.

`COc1cccc(/C=N/NC(=O)c2ccc(OCc3cccc(Cl)c3)cc2)c1` [Compound 153, 4-(3-Chlorobenzyloxy)benz(3-methoxybenzylidene)hydrazide] was tested, and the “Activity (%)” value was 5.3%.

With `COc1cccc(/C=N/NC(=O)c2ccc(OCc3ccc(C(F)(F)F)cc3)cc2)c1` [Compound 154, 4-(4-Trifluoromethylbenzyloxy)benz(3-methoxybenzylidene)hydrazide] the “Activity (%)” value was 6.7%.

`COc1cccc(/C=N/NC(=O)c2ccc(OCc3cccc(OC)c3)cc2)c1` [Compound 155, 4-(3-Methoxybenzyloxy)benz(3-methoxybenzylidene)hydrazide] was tested, and the “Activity (%)” value was 11%.

With `C=Cc1ccc(COc2ccc(C(=O)N/N=C/c3cccc(OC)c3)cc2)cc1` [Compound 156, 4-(4-Vinylbenzyloxy)benz(3-methoxybenzylidene)hydrazide] the “Activity (%)” value was 7.9%.

`COc1cccc(/C=N/NC(=O)c2ccc(OCc3ccc4ccccc4c3)cc2)c1` [Compound 157, 4-(2-Naphthylmethoxy)benz(3-methoxybenzylidene)hydrazide] was tested, and the “Activity (%)” value was 9.9%.

For `COc1cc(/C=N/NC(=O)c2ccc(-c3ccccc3)cc2)ccc1F` [Compound 159, 4-Phenylbenz(4-fluoro-3-methoxybenzylidene)hydrazide], the “Activity (%)” value was 8.9%.

For `COc1cc(/C=N/NC(=O)c2ccc(-c3ccccc3)cc2)cc(OC)c1` [Compound 160, 4-Phenylbenz(3,5-dimethoxybenzylidene)hydrazide], the “Activity (%)” value was 6.1%.

In the case of `COc1cccc(/C=N/NC(=O)c2ccc(-c3ccccc3F)cc2)c1` [Compound 161, 4-(2-Fluorophenyl)phenylbenz(3-methoxybenzylidene)hydrazide], the “Activity (%)” value is reported as 12%.

`O=C(N/N=C/c1ccc2[nH]ccc2c1)c1ccc(-c2ccccc2)cc1` [Compound 163, 4-Phenylbenz(5-indolidene)hydrazide] was tested, and the “Activity (%)” value was 23%.

For `C=Cc1cccc(/C=N/NC(=O)c2ccc(-c3ccccc3)cc2)c1` [Compound 164, 4-Phenylbenz(3-vinylbenzylidene)hydrazide], the “Activity (%)” value was 11%.

In the case of `CC(=O)c1cccc(/C=N/NC(=O)c2ccc(-c3ccccc3)cc2)c1` [Compound 165, 4-Phenylbenz(3-acetylbenzylidene)hydrazide], the “Activity (%)” value is reported as 14%.

With `C=Cc1cccc(/C=N/NC(=O)c2ccc(N(C)C)cc2)c1` [Compound 167, 4-Dimethylaminobenz(3-vinylbenzylidene)hydrazide] the “Activity (%)” value was 11%.

In the case of `COc1cccc(/C=N/NC(=O)c2ccc(N(C)C)cc2)c1` [Compound 168, 4-Dimethylaminobenz(3-methoxybenzylidene)hydrazide], the “Activity (%)” value (10 µM) is reported as 11%.

In the case of `CN(C)c1ccc(C(=O)N/N=C/c2cccc(/C=C/c3ccccc3)c2)cc1` [Compound 170, 4-Dimethylaminobenz(3-(2E-phenylethenyl)benzylidene)hydrazide], the “Activity (%)” value is reported as 4.7%.

For `CN(C)c1ccc(C(=O)N/N=C/c2cccc(CO)c2)cc1` [Compound 171, 4-Dimethylaminobenz(3-hydroxymethylbenzylidene)hydrazide], the “Activity (%)” value was 16%.
